Laboratory results taken from paper PMC6628435, “Chemical Synthesis, Proper Folding, Nav Channel Selectivity Profile and Analgesic Properties of the Spider Peptide Phlotoxin 1” (Toxins, 2019).
Bridge positions count the residues as written; N and C are the ends. Peptide text beside a SMILES is read from it.

Key:
human Nav1.7 channel = details: ref [47]; cited from earlier work
hNav1.7 = molecular target: T1, hNav1.7 (Homo sapiens, UniProt Q15858); assay: Manual patch clamp, reversibility of block of hNav1.7 currents; format: cell-based
T1 construct: expressed in transfected cells
T1 sequence (Q15858 whole entry): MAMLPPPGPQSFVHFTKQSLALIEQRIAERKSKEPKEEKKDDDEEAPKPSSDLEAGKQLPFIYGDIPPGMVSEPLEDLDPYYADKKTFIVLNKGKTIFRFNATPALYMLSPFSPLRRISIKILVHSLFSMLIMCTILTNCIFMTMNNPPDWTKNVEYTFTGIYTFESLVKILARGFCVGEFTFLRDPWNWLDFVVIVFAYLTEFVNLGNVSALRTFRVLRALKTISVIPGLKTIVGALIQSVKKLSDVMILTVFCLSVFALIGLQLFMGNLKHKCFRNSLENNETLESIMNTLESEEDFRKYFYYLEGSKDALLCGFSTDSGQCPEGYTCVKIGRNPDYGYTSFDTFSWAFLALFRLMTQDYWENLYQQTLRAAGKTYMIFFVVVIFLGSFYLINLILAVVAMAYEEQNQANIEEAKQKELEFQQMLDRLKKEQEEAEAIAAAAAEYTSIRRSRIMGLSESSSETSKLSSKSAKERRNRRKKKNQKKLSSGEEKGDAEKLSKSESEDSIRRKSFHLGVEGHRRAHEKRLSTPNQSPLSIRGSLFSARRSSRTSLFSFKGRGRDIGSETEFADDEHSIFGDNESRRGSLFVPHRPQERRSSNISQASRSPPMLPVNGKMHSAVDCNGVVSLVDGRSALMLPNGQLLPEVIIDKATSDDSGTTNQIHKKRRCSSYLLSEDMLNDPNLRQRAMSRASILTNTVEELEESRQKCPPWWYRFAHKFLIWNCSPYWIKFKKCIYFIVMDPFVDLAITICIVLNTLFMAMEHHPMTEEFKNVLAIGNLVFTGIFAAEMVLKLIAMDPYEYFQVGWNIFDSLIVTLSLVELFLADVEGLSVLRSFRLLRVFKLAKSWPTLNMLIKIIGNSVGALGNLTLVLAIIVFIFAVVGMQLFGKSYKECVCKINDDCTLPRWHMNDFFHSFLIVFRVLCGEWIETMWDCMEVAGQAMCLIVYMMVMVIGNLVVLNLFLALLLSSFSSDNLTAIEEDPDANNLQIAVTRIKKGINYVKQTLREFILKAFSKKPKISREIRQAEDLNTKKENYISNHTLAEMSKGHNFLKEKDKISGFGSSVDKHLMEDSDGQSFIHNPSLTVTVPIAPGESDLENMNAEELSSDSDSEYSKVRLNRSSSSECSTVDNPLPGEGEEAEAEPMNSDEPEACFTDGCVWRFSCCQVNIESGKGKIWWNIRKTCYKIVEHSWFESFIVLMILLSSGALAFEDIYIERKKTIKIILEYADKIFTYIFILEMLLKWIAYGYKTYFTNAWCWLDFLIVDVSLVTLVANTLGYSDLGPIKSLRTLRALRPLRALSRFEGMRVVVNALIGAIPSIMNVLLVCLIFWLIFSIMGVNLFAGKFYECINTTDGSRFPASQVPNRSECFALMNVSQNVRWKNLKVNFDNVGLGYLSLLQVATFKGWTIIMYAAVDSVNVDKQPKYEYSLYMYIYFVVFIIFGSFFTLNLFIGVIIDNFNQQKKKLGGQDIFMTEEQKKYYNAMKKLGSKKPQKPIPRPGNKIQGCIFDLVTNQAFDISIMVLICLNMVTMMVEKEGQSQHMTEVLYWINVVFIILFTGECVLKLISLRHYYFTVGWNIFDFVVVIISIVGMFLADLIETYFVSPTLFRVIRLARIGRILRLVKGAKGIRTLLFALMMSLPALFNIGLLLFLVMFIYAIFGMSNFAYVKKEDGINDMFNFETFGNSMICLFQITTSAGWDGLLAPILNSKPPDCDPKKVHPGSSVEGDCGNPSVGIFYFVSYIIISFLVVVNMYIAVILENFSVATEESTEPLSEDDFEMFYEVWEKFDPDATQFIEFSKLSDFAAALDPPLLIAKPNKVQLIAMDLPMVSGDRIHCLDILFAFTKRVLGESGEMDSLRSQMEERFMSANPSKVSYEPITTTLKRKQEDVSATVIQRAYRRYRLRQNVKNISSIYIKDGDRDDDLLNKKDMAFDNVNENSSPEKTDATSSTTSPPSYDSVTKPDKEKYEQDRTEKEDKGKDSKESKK
Text: Following our initial screen for the selectivity of synthetic PhlTx1 and the discovery that Nav1.7 was the main target, we decided to further evaluate the activity of PhlTx1. We used a CHO mammalian cell line expressing the human Nav1.7 instead of Xenopus oocytes for the pharmacological evaluation. To this end, we used an automated patch-clamp system, the Nanion syncropatch 384PE, and a standardized robotic method from Beckmann to apply PhlTx1 in the recording chambers and collect the kinetic information of Nav1.7 current from a high number of Nav1.7-expressing cells. The syncropatch 384PE has the potential to record from 384 cells at a time. 100-ms pulses from −100 mV to −10 mV were applied at a frequency of 0.2 Hz and various concentrations of PhlTx1 were applied to the cells. An example of a Nav1.7 current recording is illustrated in Figure 6A along with the effect of 100 nM PhlTx1. It is of interest to note that current inhibition develops over time at this PhlTx1 concentration that is above 50% at the end of a 13-min application time. […] Note that the highest achievable inhibition was 85%–92% for the two most efficient concentrations (333 nM and 1 μM). The time constant of inhibition was concentration-dependent as expected and could be fitted with decreasing mono-exponentials with time constants of 253 s (33 nM, n = 4), 159 s (100 nM, n = 8), 97 s (333 nM, n = 6) and 36 s (1 μM, n = 8). […] Using a manual patch clamp, which is better suited to investigate current recovery from block than an automated patch clamp that requires several washing steps, we investigated the reversibility properties of a PhlTx1 block. […] After 16 min of washout of 100 nM PhlTx1, we observed a maximum of 32% recovery of the blocked current that occurred with a time constant of 303 s. Since Nav1.4 and Nav1.6 were the two most sensitive channels to the PhlTx1 block, we also performed dose-response curves for these two channels with the automated patch clamp system.
Figure 6 PhlTx1 inhibition of Nav1.7 channels expressed in a mammalian cell line. […]

Kv3.4 = assay: Ion channel selectivity screen, voltage-clamp, heterologous expression in Xenopus laevis oocytes and/or COS cells; format: cell-based; details: 1 μM PhlTx1

## CC(C)C[C@@H]1NC(=O)[C@@H](NC(=O)[C@H](C)N)CSSC[C@@H]2NC(=O)[C@@H]3CSSC[C@@H](C(=O)N[C@@H](CCCNC(=N)N)C(=O)N[C@@H](Cc4ccc(O)cc4)C(=O)N[C@@H](CCCCN)C(=O)N[C@@H](CC(C)C)C(=O)N[C@@H](Cc4ccccc4)C(=O)O)NC(=O)[C@H](Cc4c[nH]c5ccccc45)NC(=O)[C@@H]4CCCN4C(=O)[C@H](Cc4ccc(O)cc4)NC(=O)[C@H](CCCCN)NC(=O)[C@H](Cc4c[nH]c5ccccc45)NC(=O)[C@H](CCC(=O)O)NC(=O)[C@H](CSSC[C@H](NC(=O)[C@H](CO)NC(=O)[C@H](CC(=O)O)NC(=O)[C@H](Cc4c[nH]c5ccccc45)NC(=O)[C@H](CCC(N)=O)NC(=O)CNC1=O)C(=O)N[C@@H](CC(=O)O)C(=O)N1CCC[C@H]1C(=O)N[C@@H](CCCCN)C(=O)N[C@@H](C)C(=O)N[C@@H](CO)C(=O)N[C@@H](CCCCN)C(=O)N3)NC(=O)[C@H](C)NC(=O)[C@H](Cc1ccc(O)cc1)NC(=O)[C@H](CC(N)=O)NC(=O)[C@@H]1CCCN1C2=O [PhlTx1, Phlotoxin-1] (H-ACLGQWDSCDPKASKCCPNYACEWKYPWCRYKLF-OH; disulfide 2-17, 9-22, 16-29; N-terminus and C-terminus assumed)
Human Nav1.7 channel
  IC50: 250 nM
hNav1.7
  reversibility of block: partially and poorly reversible
hNav1.7; after 16 min of washout of 100 nM PhlTx1, n = 5 cells
  maximum recovery of the blocked current: ≤ 32%
hNav1.7; washout of 100 nM PhlTx1, n = 5 cells
  time constant of recovery from block: 303 s
Kv3.4
  current inhibition at the voltage of maximum ion flux: ~20%
